SMILES strings stand for the structures. Bounds are passed on as bounds.

In this test the target is Cystic fibrosis transmembrane conductance regulator (Homo sapiens, UniProt P13569). The test is described as follows: Potentiation of CFTR in primary human epithelial enteroid cells assessed as chloride transport in presence of forskolin by measuring membrane potential incubated for 18 to 24 hrs by FLIPR Tetra based dye assay. The class given is tissue-based, Epithelial cell.
Chain of Cystic fibrosis transmembrane conductance regulator (P13569 whole entry): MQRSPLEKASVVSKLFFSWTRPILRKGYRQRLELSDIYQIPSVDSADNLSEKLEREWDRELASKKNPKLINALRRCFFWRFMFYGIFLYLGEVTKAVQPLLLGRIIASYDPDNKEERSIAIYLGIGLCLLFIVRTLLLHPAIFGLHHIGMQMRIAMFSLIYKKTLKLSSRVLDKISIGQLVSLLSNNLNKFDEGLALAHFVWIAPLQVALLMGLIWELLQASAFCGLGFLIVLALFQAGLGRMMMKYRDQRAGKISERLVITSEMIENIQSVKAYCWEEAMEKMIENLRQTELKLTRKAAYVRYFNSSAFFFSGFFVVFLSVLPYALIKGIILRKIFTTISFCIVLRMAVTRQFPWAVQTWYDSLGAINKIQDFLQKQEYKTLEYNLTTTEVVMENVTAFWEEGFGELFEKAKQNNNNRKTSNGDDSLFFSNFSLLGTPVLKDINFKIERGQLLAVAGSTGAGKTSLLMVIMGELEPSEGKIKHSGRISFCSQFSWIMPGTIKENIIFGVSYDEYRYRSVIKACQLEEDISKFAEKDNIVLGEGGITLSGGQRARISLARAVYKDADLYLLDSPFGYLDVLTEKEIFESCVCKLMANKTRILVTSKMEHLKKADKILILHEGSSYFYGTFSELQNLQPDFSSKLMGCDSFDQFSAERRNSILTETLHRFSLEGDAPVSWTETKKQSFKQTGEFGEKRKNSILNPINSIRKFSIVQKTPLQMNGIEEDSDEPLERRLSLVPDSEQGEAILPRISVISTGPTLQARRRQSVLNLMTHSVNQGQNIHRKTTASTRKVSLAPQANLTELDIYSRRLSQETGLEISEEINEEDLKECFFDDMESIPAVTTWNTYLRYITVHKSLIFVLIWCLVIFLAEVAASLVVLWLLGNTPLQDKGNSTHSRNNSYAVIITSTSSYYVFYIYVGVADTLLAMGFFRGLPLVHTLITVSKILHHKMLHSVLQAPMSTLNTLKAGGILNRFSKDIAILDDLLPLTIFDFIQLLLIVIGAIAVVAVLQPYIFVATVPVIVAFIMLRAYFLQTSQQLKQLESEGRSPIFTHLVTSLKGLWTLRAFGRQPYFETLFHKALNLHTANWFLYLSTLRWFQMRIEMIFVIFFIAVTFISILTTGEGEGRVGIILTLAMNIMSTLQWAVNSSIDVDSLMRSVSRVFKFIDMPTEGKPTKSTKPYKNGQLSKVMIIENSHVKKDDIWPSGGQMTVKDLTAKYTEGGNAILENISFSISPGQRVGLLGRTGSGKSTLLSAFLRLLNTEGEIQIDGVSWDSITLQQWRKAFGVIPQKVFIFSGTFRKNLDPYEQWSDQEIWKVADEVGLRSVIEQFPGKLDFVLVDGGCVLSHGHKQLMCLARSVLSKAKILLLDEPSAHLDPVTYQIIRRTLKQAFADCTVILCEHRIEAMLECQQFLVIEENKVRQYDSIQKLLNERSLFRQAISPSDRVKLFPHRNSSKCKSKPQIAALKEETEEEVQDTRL
The EC50 is the concentration needed to bring the measured effect to its halfway point. `CC1(C)C[C@@H]2CCCNc3cccc(n3)S(=O)(=O)NC(=O)c3ccc(-n4ccc(OCCC[Si](C)(C)C)n4)nc3N1C2`: the EC50 is less than 1 µM. Consider `CC1(C)C[C@@H]2CCCNc3cccc(n3)S(=O)(=O)NC(=O)c3ccc(-n4ccc(OC[Si](C)(C)C)n4)nc3N1C2`, for which the EC50 was less than 1 µM. For the compound `CC1(C)C[C@@H]2CCCNc3cccc(n3)S(=O)(=O)NC(=O)c3ccc(-n4ccc(OCCC5([Si](C)(C)C)CC5)n4)nc3N1C2`, the EC50 is less than 1 µM.

Regarding `CC1(C)C[C@@H]2CCCNc3cccc(n3)S(=O)(=O)NC(=O)c3ccc(-n4ccc(OC[Si](C)(C)C5(C(F)(F)F)CC5)n4)nc3N1C2`, the EC50 was less than 1 µM. As to `CC1(C)C[C@@H]2CCCNc3cccc(n3)S(=O)(=O)NC(=O)c3ccc(-n4ccc(OCC[Si](C)(C)C)n4)nc3N1C2`, the EC50 was less than 1 µM. In the case of `CC(C)(C)CC[Si](C)(C)c1ccn(-c2ccc3c(n2)N2C[C@@H](CCCNc4cccc(n4)S(=O)(=O)NC3=O)CC2(C)C)n1` it was less than 1 µM.

The values are drawn from ChEMBL document CHEMBL4814078, “Novel CFTR Modulators for Treating Cystic Fibrosis” (ACS Med Chem Lett, 2021).
